Read-outs that look alike come from different tables or passages of the source. Starred links: 1 amine or outer side, 2 acyl side, 3 side chain; linkers in the order of their positions; H or OH if unused. Non-standard residues stand in square brackets, D forms with d. Residues, ends and D or L forms follow the SMILES beside them. Groups on a side chain read outwards from the residue. No end group written: not given here. *: point of attachment. C20 diacid = O=C(O)CCCCCCCCCCCCCCCCCCC(=O)*; C18 diacid = O=C(O)CCCCCCCCCCCCCCCCC(=O)*; αMePhe(2-F) = C[C@](N)(Cc1ccccc1F)C(=O)O; γGlu = O=C(O)[C@H](CCC(=O)[*:2])N[*:1]; αMe4Pal = C[C@](N)(Cc1ccncc1)C(=O)O; αMeY = C[C@](N)(Cc1ccc(O)cc1)C(=O)O; 4Pal = N[C@@H](Cc1ccncc1)C(=O)O; αMeL = CC(C)C[C@](C)(N)C(=O)O; αMeS = C[C@](N)(CO)C(=O)O; Orn = NCCC[C@H](N)C(=O)O; AEEA = NCCOCCOCC(=O)O; Aib = CC(C)(N)C(=O)O

Common to all, as to type: cell-based
In experiment [1] the target is T1, hGIPR (Homo sapiens, UniProt P48546).
T1 sequence (P48546 22-466): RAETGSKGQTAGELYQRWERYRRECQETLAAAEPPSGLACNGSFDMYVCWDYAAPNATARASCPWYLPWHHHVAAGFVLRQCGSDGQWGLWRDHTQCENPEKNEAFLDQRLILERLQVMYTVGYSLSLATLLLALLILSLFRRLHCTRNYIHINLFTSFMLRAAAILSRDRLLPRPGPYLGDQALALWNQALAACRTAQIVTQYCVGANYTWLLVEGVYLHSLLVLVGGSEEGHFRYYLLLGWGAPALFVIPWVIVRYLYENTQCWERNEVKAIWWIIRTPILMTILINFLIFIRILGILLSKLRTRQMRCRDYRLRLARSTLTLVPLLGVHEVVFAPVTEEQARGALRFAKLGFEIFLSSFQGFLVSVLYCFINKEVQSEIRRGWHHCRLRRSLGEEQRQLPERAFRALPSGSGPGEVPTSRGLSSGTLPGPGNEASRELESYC
In words: Functional cAMP activity in the presence of 1% HSA. The following applies: read-out: cAMP Rel EC50, hGIPR.

Experiment [2] has as its target T1, hGIPR. In words: Functional cAMP activation in the presence of 0.1% casein (no HSA). The settings on record: read-out: Relative cAMP EC50, hGIPR.
For experiment [3], the target named is T2, hGLP-1R (Homo sapiens, UniProt P43220). The experiment in a line: Functional cAMP activity in the presence of 1% HSA. The following applies: read-out: cAMP Rel EC50, hGLP-1R.
T2 sequence (P43220 24-463): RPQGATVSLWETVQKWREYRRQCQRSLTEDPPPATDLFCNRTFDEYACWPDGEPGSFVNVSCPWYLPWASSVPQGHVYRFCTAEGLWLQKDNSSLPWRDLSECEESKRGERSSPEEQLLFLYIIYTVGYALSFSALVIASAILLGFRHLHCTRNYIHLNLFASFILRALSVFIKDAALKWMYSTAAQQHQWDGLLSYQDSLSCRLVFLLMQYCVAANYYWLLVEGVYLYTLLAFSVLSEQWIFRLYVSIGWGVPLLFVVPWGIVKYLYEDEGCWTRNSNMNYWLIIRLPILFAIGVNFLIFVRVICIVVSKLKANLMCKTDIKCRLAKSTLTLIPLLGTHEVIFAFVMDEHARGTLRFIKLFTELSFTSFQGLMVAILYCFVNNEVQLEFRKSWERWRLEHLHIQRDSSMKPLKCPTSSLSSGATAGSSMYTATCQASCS
Experiment [4] has as its target T2, hGLP-1R. The experiment in a line: Functional cAMP activation in the presence of 0.1% casein (no HSA). The settings on record: read-out: Relative cAMP EC50, hGLP-1R.
Experiment [5] has as its target human GcgR (Homo sapiens, UniProt P47871). The experiment in a line: Functional cAMP activity in the presence of 1% HSA. The following applies: read-out: cAMP Rel EC50, hGcgR.
Experiment [6] addresses hGcgR (Homo sapiens, UniProt P47871). In words: Functional cAMP activation in the presence of 0.1% casein (no HSA). The following applies: read-out: Relative cAMP EC50, hGcgR.
The mark [7] stands for this setting: in the presence of 0.1% casein (no HSA), geometric mean.
Setting [8] is: HEK-293 clonal cell line, 1% HSA, geometric mean of relative EC50.
The mark [9] stands for this setting: in the presence of 0.1% casein (no HSA), geometric mean of relative EC50.
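Wherever Relative cAMP EC50, hGIPR is given: intracellular cAMP rise after 30 min at 37 °C read by HTRF against a standard curve, scaled between buffer alone (0%) and top control ligand concentration (100%), four-parameter fit.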
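Wherever Relative cAMP EC50, hGLP-1R is given: intracellular cAMP rise after 30 min at 37 °C read by HTRF, normalized between buffer only (0%) and maximal control ligand (100%), four-parameter variable-slope fit.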
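Wherever Relative cAMP EC50, hGcgR is given: intracellular cAMP rise after 30 min at 37 °C, read by HTRF against a cAMP standard curve, scaled from buffer only (0%) to maximal control ligand response (100%).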

Chain of hGcgR (P47871 26-477): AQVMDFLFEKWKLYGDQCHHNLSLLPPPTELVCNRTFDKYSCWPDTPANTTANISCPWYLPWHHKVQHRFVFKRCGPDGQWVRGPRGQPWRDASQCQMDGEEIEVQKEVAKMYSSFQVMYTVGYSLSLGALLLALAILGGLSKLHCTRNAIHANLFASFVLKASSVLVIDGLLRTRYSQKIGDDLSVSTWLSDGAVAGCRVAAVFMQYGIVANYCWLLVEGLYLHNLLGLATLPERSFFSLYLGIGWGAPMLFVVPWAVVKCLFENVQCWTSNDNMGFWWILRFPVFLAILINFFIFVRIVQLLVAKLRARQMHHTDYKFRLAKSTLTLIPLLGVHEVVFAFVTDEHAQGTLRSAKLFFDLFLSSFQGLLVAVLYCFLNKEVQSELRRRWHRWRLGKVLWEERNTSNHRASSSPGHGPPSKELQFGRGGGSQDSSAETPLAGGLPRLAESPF
Chain of human GcgR (P47871 26-477): as above

For the compound `CC[C@H](C)[C@H](NC(=O)[C@H](Cc1ccccc1)NC(=O)[C@H](C)NC(=O)C(C)(C)NC(=O)[C@H](CCC(N)=O)NC(=O)[C@H](C)NC(=O)[C@H](CCCCNC(=O)COCCOCCNC(=O)COCCOCCNC(=O)CC[C@H](NC(=O)CCCCCCCCCCCCCCCCC(=O)O)C(=O)O)NC(=O)[C@H](CCCCN)NC(=O)[C@H](CC(=O)O)NC(=O)[C@H](CC(C)C)NC(=O)[C@](C)(CC(C)C)NC(=O)[C@H](CCCCN)NC(=O)[C@H](CO)NC(=O)[C@H](Cc1ccccc1)NC(=O)[C@H](CC(=O)O)NC(=O)[C@H](CO)NC(=O)[C@@H](NC(=O)[C@H](Cc1ccccc1)NC(=O)[C@@H](NC(=O)CNC(=O)[C@H](CCC(N)=O)NC(=O)C(C)(C)NC(=O)[C@@H](N)Cc1ccc(O)cc1)[C@@H](C)O)[C@@H](C)O)C(=O)N[C@@H](CCC(=O)O)C(=O)N[C@@H](Cc1ccc(O)cc1)C(=O)N[C@@H](CC(C)C)C(=O)N[C@@H](CC(C)C)C(=O)N[C@@H](C)C(=O)NCC(=O)NCC(=O)N1CCC[C@H]1C(=O)N[C@@H](CO)C(=O)N[C@@H](CO)C(=O)NCC(=O)N[C@@H](CCC(=O)O)C(=O)N1CCC[C@H]1C(=O)N1CCC[C@H]1C(=O)N1CCC[C@H]1C(=O)N[C@@H](CO)C(=O)N[C@@H](CCC(=O)O)C(=O)NCC(N)=O` [Example 25], the EC50 in experiment [1] was 19.8 nM; in experiment [2] (setting [7]), 0.128 nM; in experiment [3] it was 520 nM; in experiment [4] (setting [7]), 3.34 nM; in experiment [5], 939 nM; in experiment [6] (setting [7]), 6.8 nM.

As for “H-Y[Aib]QGTFTSD[4Pal]SQ[αMeL]LDKK([γGlu-γGlu-C18 diacid])AQ[αMe4Pal]AFIEYLIE[Aib]GPSSGAPPPSGE-NH2 [Example 882]”, the 50% effective concentration (EC50) in experiment [1] is 26.6 nM; in experiment [2] (setting [7]), 0.129 nM; in experiment [3] it was 361 nM; in experiment [4] (setting [7]), 2.33 nM; in experiment [5] it was 559 nM; in experiment [6] (setting [7]), 2.73 nM.

Turning to “H-Y[Aib]QGT[αMePhe(2-F)]TSD[4Pal]SI[αMeL]LD[Orn]K([AEEA-γGlu-C18 diacid])AQ[αMe4Pal][Orn]FI[dE][αMeY]LIEGGPSSGDPPPEGE-NH2 [Example 727]”, the EC50 stood at 1.09 nM in experiment [1]; 0.0109 nM in experiment [2]; 24.1 nM in experiment [3]; 0.271 nM in experiment [4]; 287 nM in experiment [5]; 2.38 nM in experiment [6].

On to “H-Y[Aib]QGTFTSDFS[Orn][αMeL]LDKK([AEEA-γGlu-C20 diacid])AQ[Aib]AFIEYLLAGGPSSGAPPPSGS-NH2 [Example 76]”, for which the EC50 turned out to be 45.5 nM in experiment [1]; 0.196 nM in experiment [2] (setting [7]); 436 nM in experiment [3]; 2.25 nM in experiment [4] (setting [7]); 2240 nM in experiment [5]; 11.1 nM in experiment [6] (setting [7]).

Regarding “H-Y[Aib]QGTFTSDFS[Orn][αMeL]LDKK([AEEA-γGlu-C20 diacid])AQ[Aib]AFIEYLLAGGPSSGEPPPSGS-NH2 [Example 92]”, the EC50 was determined as 62 nM in experiment [1]; 0.212 nM in experiment [2] (setting [7]); 735 nM in experiment [3]; 2.08 nM in experiment [4] (setting [7]); 2540 nM in experiment [5]; 12 nM in experiment [6] (setting [7]).

As for `CC[C@H](C)[C@H](NC(=O)[C@H](Cc1ccccc1)NC(=O)[C@H](C)NC(=O)C(C)(C)NC(=O)[C@H](CCC(N)=O)NC(=O)[C@H](C)NC(=O)[C@H](CCCCNC(=O)COCCOCCNC(=O)CC[C@H](NC(=O)CCCCCCCCCCCCCCCCC(=O)O)C(=O)O)NC(=O)[C@H](CCCN)NC(=O)[C@H](CC(=O)O)NC(=O)[C@H](CC(C)C)NC(=O)[C@](C)(CC(C)C)NC(=O)[C@@H](NC(=O)[C@](C)(CO)NC(=O)[C@H](Cc1ccncc1)NC(=O)[C@H](CC(=O)O)NC(=O)[C@H](CO)NC(=O)[C@@H](NC(=O)[C@](C)(Cc1ccccc1F)NC(=O)[C@@H](NC(=O)CNC(=O)[C@H](CCC(N)=O)NC(=O)C(C)(C)NC(=O)[C@@H](N)Cc1c[nH]cn1)[C@@H](C)O)[C@@H](C)O)[C@@H](C)CC)C(=O)N[C@H](CCC(=O)O)C(=O)N[C@@H](Cc1ccc(O)cc1)C(=O)N[C@@H](CC(C)C)C(=O)N[C@@H](CC(C)C)C(=O)N[C@@H](CCC(=O)O)C(=O)NCC(=O)NCC(=O)N1CCC[C@H]1C(=O)N[C@@H](CO)C(=O)N[C@@H](CO)C(=O)NCC(=O)N[C@@H](CCC(=O)O)C(=O)N1CCC[C@H]1C(=O)N1CCC[C@H]1C(=O)N1CCC[C@H]1C(=O)N[C@@H](CCC(=O)O)C(N)=O` [Example 466] (H-H[Aib]QGT[αMePhe(2-F)]TSD[4Pal][αMeS]I[αMeL]LD[Orn]K([AEEA-γGlu-C18 diacid])AQ[Aib]AFI[dE]YLLEGGPSSGEPPPE-NH2; N-terminus assumed), the EC50 in experiment [1] turned out to be 5.65 nM; in experiment [2] it was 0.0466 nM; in experiment [3] it was 13.3 nM; in experiment [4] it was 0.207 nM; in experiment [5] it was 348 nM; in experiment [6], 5.84 nM.

“H-Y[Aib]QGTFTSD[4Pal]SK[αMeL]LDKK([AEEA-γGlu-C18 diacid])AQ[Aib]AFIEYLIE[Aib]GPSSGAPPPSGSE-NH2 [Example 901]”: the EC50 in experiment [1] turned out to be 34 nM; in experiment [2] (setting [7]), 0.17 nM; in experiment [3] it was 193 nM; in experiment [4] (setting [7]), 1.26 nM; in experiment [5], 1150 nM; in experiment [6] (setting [7]), 9.09 nM.

Turning to “H-Y[Aib]QGTFTSDFS[Orn][αMeL]LDKK([AEEA-γGlu-C18 diacid])AQ[Aib]AFIEWLLEGGPSSGAPPPEGE-NH2 [Example 120]”, the EC50 turned out to be 33.4 nM in experiment [1]; 0.44 nM in experiment [2] (setting [7]); 664 nM in experiment [3]; 4.77 nM in experiment [4] (setting [7]); 1540 nM in experiment [5]; 5.85 nM in experiment [6] (setting [7]).

Turning to “H-Y[Aib]QGT[αMePhe(2-F)]TSD[4Pal]SI[αMeL]LDKK([γGlu-γGlu-C18 diacid])AQ[Aib]AFIEYLQEGGPSSGEPPPSGSEE-NH2 [Example 634]”, the EC50 is 1.48 nM in experiment [1] (setting [8]); 0.0195 nM in experiment [2] (setting [9]); 34.9 nM in experiment [3] (setting [8]); 0.403 nM in experiment [4] (setting [9]); 979 nM in experiment [5] (setting [8]); 6.49 nM in experiment [6] (setting [9]).

For “H-Y[Aib]QGT[αMePhe(2-F)]TSD[4Pal][αMeS]I[αMeL]LD[Orn]K([AEEA-γGlu-C18 diacid])AQ[αMe4Pal]EFI[dE][αMeY]LIEGGPSSGAPPPGGE-NH2 [Example 1144]”, the EC50 in experiment [1] was found to be 0.72 nM; in experiment [2] (setting [7]), 0.00649 nM; in experiment [3], 36.5 nM; in experiment [4] (setting [7]), 0.282 nM; in experiment [5], 196 nM; in experiment [6] (setting [7]) it was 1.32 nM.

For the compound “Y[Aib]QGTFTSDFSK[αMeL]LDKK([AEEA-γGlu-C20 diacid])AQ[Aib]AFIQWLLEGGPSSGAPPPSEG-NH2 [Example 39]”, the 50% effective concentration (EC50) in experiment [1] is 30.5 nM; in experiment [2] (setting [7]), 0.299 nM; in experiment [3] it was 260 nM; in experiment [4] (setting [7]) it was 2.13 nM; in experiment [5], 1090 nM; in experiment [6] (setting [7]), 10.1 nM.

For the compound `CC[C@H](C)[C@H](NC(=O)[C@H](Cc1ccccc1)NC(=O)[C@H](C)NC(=O)C(C)(C)NC(=O)[C@H](CCC(N)=O)NC(=O)[C@H](C)NC(=O)[C@H](CCCCNC(=O)COCCOCCNC(=O)COCCOCCNC(=O)CC[C@H](NC(=O)CCCCCCCCCCCCCCCCCCC(=O)O)C(=O)O)NC(=O)[C@H](CCCCN)NC(=O)[C@H](CC(=O)O)NC(=O)[C@H](CC(C)C)NC(=O)[C@H](CC(C)C)NC(=O)[C@@H](NC(=O)[C@H](CO)NC(=O)[C@H](Cc1ccc(O)cc1)NC(=O)[C@H](CC(=O)O)NC(=O)[C@H](CO)NC(=O)[C@@H](NC(=O)[C@](C)(Cc1ccccc1F)NC(=O)[C@@H](NC(=O)CNC(=O)[C@H](CCC(N)=O)NC(=O)C(C)(C)NC(=O)[C@@H](N)Cc1ccc(O)cc1)[C@@H](C)O)[C@@H](C)O)[C@@H](C)CC)C(=O)N[C@@H](CCC(=O)O)C(=O)N[C@@H](Cc1ccc(O)cc1)C(=O)N[C@@H](CC(C)C)C(=O)N[C@@H](CC(C)C)C(=O)N[C@@H](CCC(=O)O)C(=O)NCC(=O)NCC(=O)N1CCC[C@H]1C(=O)N[C@@H](CO)C(=O)N[C@@H](CO)C(=O)NCC(=O)N[C@@H](C)C(=O)N1CCC[C@H]1C(=O)N1CCC[C@H]1C(=O)N1CCC[C@H]1C(=O)N[C@@H](CO)C(N)=O` [Example 385], the EC50 in experiment [1] was 4.03 nM; in experiment [2] (setting [7]), 0.0141 nM; in experiment [3], 86.1 nM; in experiment [4] (setting [7]), 0.235 nM; in experiment [5], 700 nM; in experiment [6] (setting [7]), 1 nM.
